System: MCF-10A
Experiment: normalised response (% of control), CellTiter-Glo; higher = more viable cells (100 = DMSO, 0 = benzethonium chloride kill control)
Conditions: incubation time: 72 h
Outline: (§1)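 After 72 h with compound in 384-well plates, breast cancer cell lines seeded as 20 µl suspension were read for CellTox Green fluorescence at 485/520 nm. CellTiter-Glo luminescence was then read after 10 min at room temperature. Compound was present at 5 concentrations in 10-fold steps over a 10,000-fold range set per compound, and plates were normalised to 0.1 % DMSO (100) and a positive kill control (0). Values are normalised signals, each at a single concentration.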

Point of comparison: `CC(=O)Nc1ccc(C(=O)Nc2ccccc2N)cc1` [Tacedinaline] (0.1 nM), normalised response 98.4%. Against it:
- NC(=O)Nc1cc(-c2cccc(F)c2)sc1C(=O)N[C@H]1CCCNC1 [AZD7762] (0.1 nM) — lower, 98.2%

System: HCC1599
Experiment: as above
Conditions: incubation time: 72 h
Outline: as §1

Point of comparison: `C[C@]12CC[C@@H]3c4ccc(O)cc4C[C@@H](CCCCCCCCC[S+]([O-])CCCC(F)(F)C(F)(F)F)[C@H]3[C@@H]1CC[C@@H]2O` (stereo partly specified) [Fulvestrant] (100 nM), normalised response 110%. Against it:
- CS(=O)(=O)c1ccc(C2=C(c3ccccc3)C(=O)OC2)cc1 [Rofecoxib] (1 nM) — lower, 99.1%
- CCCCCCCCCCCCCCCCCCOP(=O)([O-])OC1CC[N+](C)(C)CC1 [Perifosine] (2.5 nM) — lower, 61.5%
- O=C(O)c1ccc(-c2c[nH]c3ncc(-c4ccccc4)cc23)cc1C1CCCC1 (1 nM) — lower, 83.8%
- N#CCNC(=O)c1ccc(-c2ccnc(Nc3ccc(N4CCOCC4)cc3)n2)cc1 [Momelotinib] (10 nM) — lower, 89.8%
- O=P1(NCCCl)OCCCN1CCCl (stereo unspecified) [Ifosfamide] (10 nM) — lower, 89.3%
- Oc1nc(-c2ccc(C(F)(F)F)cc2)nc2c1CSCC2 [XAV-939] (10 nM) — lower, 108%
- O=C1CCC(N2C(=O)c3ccccc3C2=O)C(=O)N1 (stereo unspecified) [Thalidomide] (10 nM) — lower, 102%
- Cn1c(CCCC(=O)O)nc2cc(N(CCCl)CCCl)ccc21 [Bendamustine] (10 nM) — lower, 106%
- Cc1ccc(C(=O)N(CCCN)[C@@H](c2oc3cc(Cl)ccc3c(=O)c2Cc2ccccc2)C(C)C)cc1 (0.01 nM) — higher, 112%
- CCC1(c2ccc(N)cc2)CCC(=O)NC1=O (stereo unspecified) [Aminoglutethimide] (10 nM) — lower, 97%
- O=C(CCCCCCC(=O)Nc1ccc([C@H]2O[C@@H](CSc3nc(-c4ccccc4)c(-c4ccccc4)o3)C[C@@H](c3ccc(CO)cc3)O2)cc1)NO [Tubacin] (10 nM) — lower, 95.3%
- NC(=O)Nc1cc(-c2cccc(F)c2)sc1C(=O)N[C@H]1CCCNC1 [AZD7762] (0.1 nM) — lower, 89.9%
- CC(=O)Nc1ccc(C(=O)Nc2ccccc2N)cc1 [Tacedinaline] (0.1 nM) — lower, 100%

System: CAL-120
Experiment: as above
Conditions: incubation time: 72 h
Outline: as §1

Point of comparison: `CCC1(c2ccc(N)cc2)CCC(=O)NC1=O` (stereo unspecified) [Aminoglutethimide] (10 nM), normalised response 100%. Against it:
- C[C@]12CC[C@@H]3c4ccc(O)cc4C[C@@H](CCCCCCCCC[S+]([O-])CCCC(F)(F)C(F)(F)F)[C@H]3[C@@H]1CC[C@@H]2O (stereo partly specified) [Fulvestrant] (100 nM) — the same, 100%
- CS(=O)(=O)c1ccc(C2=C(c3ccccc3)C(=O)OC2)cc1 [Rofecoxib] (1 nM) — lower, 98.6%
- CCCCCCCCCCCCCCCCCCOP(=O)([O-])OC1CC[N+](C)(C)CC1 [Perifosine] (2.5 nM) — higher, 102%
- O=C(O)c1ccc(-c2c[nH]c3ncc(-c4ccccc4)cc23)cc1C1CCCC1 (1 nM) — lower, 94.8%
- N#CCNC(=O)c1ccc(-c2ccnc(Nc3ccc(N4CCOCC4)cc3)n2)cc1 [Momelotinib] (10 nM) — lower, 95.1%
- O=P1(NCCCl)OCCCN1CCCl (stereo unspecified) [Ifosfamide] (10 nM) — lower, 93.2%
- Oc1nc(-c2ccc(C(F)(F)F)cc2)nc2c1CSCC2 [XAV-939] (10 nM) — lower, 93.8%
- O=C1CCC(N2C(=O)c3ccccc3C2=O)C(=O)N1 (stereo unspecified) [Thalidomide] (10 nM) — lower, 94.2%
- Cn1c(CCCC(=O)O)nc2cc(N(CCCl)CCCl)ccc21 [Bendamustine] (10 nM) — higher, 107%
- Cc1ccc(C(=O)N(CCCN)[C@@H](c2oc3cc(Cl)ccc3c(=O)c2Cc2ccccc2)C(C)C)cc1 (0.01 nM) — lower, 96.6%
- O=C(CCCCCCC(=O)Nc1ccc([C@H]2O[C@@H](CSc3nc(-c4ccccc4)c(-c4ccccc4)o3)C[C@@H](c3ccc(CO)cc3)O2)cc1)NO [Tubacin] (10 nM) — lower, 95.8%
- NC(=O)Nc1cc(-c2cccc(F)c2)sc1C(=O)N[C@H]1CCCNC1 [AZD7762] (0.1 nM) — higher, 105%
- CC(=O)Nc1ccc(C(=O)Nc2ccccc2N)cc1 [Tacedinaline] (0.1 nM) — lower, 92.1%

System: HCC1937
Experiment: as above
Conditions: incubation time: 72 h
Outline: as §1

Point of comparison: `CCC1(c2ccc(N)cc2)CCC(=O)NC1=O` (stereo unspecified) [Aminoglutethimide] (10 nM), normalised response 99.3%. Against it:
- C[C@]12CC[C@@H]3c4ccc(O)cc4C[C@@H](CCCCCCCCC[S+]([O-])CCCC(F)(F)C(F)(F)F)[C@H]3[C@@H]1CC[C@@H]2O (stereo partly specified) [Fulvestrant] (100 nM) — higher, 105%
- CS(=O)(=O)c1ccc(C2=C(c3ccccc3)C(=O)OC2)cc1 [Rofecoxib] (1 nM) — higher, 107%
- CCCCCCCCCCCCCCCCCCOP(=O)([O-])OC1CC[N+](C)(C)CC1 [Perifosine] (2.5 nM) — higher, 101%
- O=C(O)c1ccc(-c2c[nH]c3ncc(-c4ccccc4)cc23)cc1C1CCCC1 (1 nM) — lower, 91.1%
- N#CCNC(=O)c1ccc(-c2ccnc(Nc3ccc(N4CCOCC4)cc3)n2)cc1 [Momelotinib] (10 nM) — lower, 96.8%
- O=P1(NCCCl)OCCCN1CCCl (stereo unspecified) [Ifosfamide] (10 nM) — lower, 95.8%
- Oc1nc(-c2ccc(C(F)(F)F)cc2)nc2c1CSCC2 [XAV-939] (10 nM) — higher, 101%
- O=C1CCC(N2C(=O)c3ccccc3C2=O)C(=O)N1 (stereo unspecified) [Thalidomide] (10 nM) — lower, 95.3%
- Cn1c(CCCC(=O)O)nc2cc(N(CCCl)CCCl)ccc21 [Bendamustine] (10 nM) — higher, 102%
- Cc1ccc(C(=O)N(CCCN)[C@@H](c2oc3cc(Cl)ccc3c(=O)c2Cc2ccccc2)C(C)C)cc1 (0.01 nM) — higher, 102%
- O=C(CCCCCCC(=O)Nc1ccc([C@H]2O[C@@H](CSc3nc(-c4ccccc4)c(-c4ccccc4)o3)C[C@@H](c3ccc(CO)cc3)O2)cc1)NO [Tubacin] (10 nM) — lower, 93.1%
- NC(=O)Nc1cc(-c2cccc(F)c2)sc1C(=O)N[C@H]1CCCNC1 [AZD7762] (0.1 nM) — lower, 94.3%
- CC(=O)Nc1ccc(C(=O)Nc2ccccc2N)cc1 [Tacedinaline] (0.1 nM) — lower, 98.4%

System: MDA-MB-436
Experiment: as above
Conditions: incubation time: 72 h
Outline: as §1

Point of comparison: `O=C(O)c1ccc(-c2c[nH]c3ncc(-c4ccccc4)cc23)cc1C1CCCC1` (1 nM), normalised response 92.8%. Against it:
- C[C@]12CC[C@@H]3c4ccc(O)cc4C[C@@H](CCCCCCCCC[S+]([O-])CCCC(F)(F)C(F)(F)F)[C@H]3[C@@H]1CC[C@@H]2O (stereo partly specified) [Fulvestrant] (100 nM) — higher, 108%
- CS(=O)(=O)c1ccc(C2=C(c3ccccc3)C(=O)OC2)cc1 [Rofecoxib] (1 nM) — higher, 103%
- CCCCCCCCCCCCCCCCCCOP(=O)([O-])OC1CC[N+](C)(C)CC1 [Perifosine] (2.5 nM) — higher, 95.2%
- N#CCNC(=O)c1ccc(-c2ccnc(Nc3ccc(N4CCOCC4)cc3)n2)cc1 [Momelotinib] (10 nM) — higher, 101%
- O=P1(NCCCl)OCCCN1CCCl (stereo unspecified) [Ifosfamide] (10 nM) — higher, 94%
- Oc1nc(-c2ccc(C(F)(F)F)cc2)nc2c1CSCC2 [XAV-939] (10 nM) — higher, 99.9%
- O=C1CCC(N2C(=O)c3ccccc3C2=O)C(=O)N1 (stereo unspecified) [Thalidomide] (10 nM) — higher, 95.8%
- Cn1c(CCCC(=O)O)nc2cc(N(CCCl)CCCl)ccc21 [Bendamustine] (10 nM) — higher, 104%
- Cc1ccc(C(=O)N(CCCN)[C@@H](c2oc3cc(Cl)ccc3c(=O)c2Cc2ccccc2)C(C)C)cc1 (0.01 nM) — higher, 97.3%
- CCC1(c2ccc(N)cc2)CCC(=O)NC1=O (stereo unspecified) [Aminoglutethimide] (10 nM) — higher, 95.4%
- O=C(CCCCCCC(=O)Nc1ccc([C@H]2O[C@@H](CSc3nc(-c4ccccc4)c(-c4ccccc4)o3)C[C@@H](c3ccc(CO)cc3)O2)cc1)NO [Tubacin] (10 nM) — higher, 96%
- NC(=O)Nc1cc(-c2cccc(F)c2)sc1C(=O)N[C@H]1CCCNC1 [AZD7762] (0.1 nM) — higher, 97.5%
- CC(=O)Nc1ccc(C(=O)Nc2ccccc2N)cc1 [Tacedinaline] (0.1 nM) — higher, 101%

System: CAL-148
Experiment: as above
Conditions: incubation time: 72 h
Outline: as §1

Point of comparison: `C[C@]12CC[C@@H]3c4ccc(O)cc4C[C@@H](CCCCCCCCC[S+]([O-])CCCC(F)(F)C(F)(F)F)[C@H]3[C@@H]1CC[C@@H]2O` (stereo partly specified) [Fulvestrant] (100 nM), normalised response 97.4%. Against it:
- CS(=O)(=O)c1ccc(C2=C(c3ccccc3)C(=O)OC2)cc1 [Rofecoxib] (1 nM) — higher, 108%
- CCCCCCCCCCCCCCCCCCOP(=O)([O-])OC1CC[N+](C)(C)CC1 [Perifosine] (2.5 nM) — lower, 95.9%
- O=C(O)c1ccc(-c2c[nH]c3ncc(-c4ccccc4)cc23)cc1C1CCCC1 (1 nM) — lower, 96.5%
- N#CCNC(=O)c1ccc(-c2ccnc(Nc3ccc(N4CCOCC4)cc3)n2)cc1 [Momelotinib] (10 nM) — lower, 94.9%
- O=P1(NCCCl)OCCCN1CCCl (stereo unspecified) [Ifosfamide] (10 nM) — lower, 86.1%
- Oc1nc(-c2ccc(C(F)(F)F)cc2)nc2c1CSCC2 [XAV-939] (10 nM) — higher, 101%
- O=C1CCC(N2C(=O)c3ccccc3C2=O)C(=O)N1 (stereo unspecified) [Thalidomide] (10 nM) — lower, 92.6%
- Cn1c(CCCC(=O)O)nc2cc(N(CCCl)CCCl)ccc21 [Bendamustine] (10 nM) — higher, 110%
- Cc1ccc(C(=O)N(CCCN)[C@@H](c2oc3cc(Cl)ccc3c(=O)c2Cc2ccccc2)C(C)C)cc1 (0.01 nM) — lower, 91.8%
- CCC1(c2ccc(N)cc2)CCC(=O)NC1=O (stereo unspecified) [Aminoglutethimide] (10 nM) — higher, 100%
- O=C(CCCCCCC(=O)Nc1ccc([C@H]2O[C@@H](CSc3nc(-c4ccccc4)c(-c4ccccc4)o3)C[C@@H](c3ccc(CO)cc3)O2)cc1)NO [Tubacin] (10 nM) — higher, 100%
- NC(=O)Nc1cc(-c2cccc(F)c2)sc1C(=O)N[C@H]1CCCNC1 [AZD7762] (0.1 nM) — higher, 102%
